For 15 compounds, IC50 and inhibition results are on record in patent US10435361B2, “Kinase inhibitors” (Topivert Pharma Limited, priority 2013, dated 2019).

Structures are written as SMILES.

A word on the IC50: it is the concentration needed to halve the response being measured. Broadly, the inhibition is the change of the read-out against control, counted positive when it falls. The low end stands for little suppression, the high end for strong suppression.

Common to all, as to format: cell-based
Assay [1] deals with PBMCs. The assay can be described thus: LPS-induced TNFα/IL-8 release in PBMC cells. To be noted: Homo sapiens, assay (b), read-out: IC50 Values for Inhibition of Cytokine Release PBMCs IL-8. In outline: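 Healthy-donor PBMCs isolated by density gradient were pretreated with compound for 2 h, then stimulated with 1 ng/mL LPS (E. coli 0111:B4) for 24 h at 37° C., 5% CO2. IL-8 and TNFα in supernatants measured by sandwich ELISA.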

The next assay deals with HT29 cells. The assay can be described thus: IL-1β-induced IL-8 release in HT29 cells. To be noted: Homo sapiens, HT-29, assay (d), read-out: IC50 Values for Inhibition of Cytokine Release HT29 cells IL-8. Here is the method: HT29 cells, a human colon adenocarcinoma cell line, are plated in a 96 well plate (24 hr) and pre-treated with compounds at the desired concentration for 2 hours before addition of 5 ng/mL of IL-1β (Abcam) for 24 hours. Supernatants are harvested for IL-8 quantification by Sandwich ELISA (Duo-set, R&D System). The IC50 is determined from the dose response curve.

Assay [2] relates to PBMCs. Briefly: IL-2 and IFN gamma release in CD3/CD28 stimulated PBMC cells. To be noted: Homo sapiens, assay (c). As for the experimental part:
PBMCs from healthy subjects are separated from whole blood using a density gradient (Lymphoprep, Axis-Shield Healthcare). Cells are added to a 96 well plate pre-coated with a mixture of CD3/CD28 monoclonal antibodies (0.3 μg/mL eBioscience and 3 μg/mL BD Pharmingen respectively). Compound at the desired concentration is then added to the wells and the plate left for 3 days under normal tissue culture conditions. […] The IC50 is determined from the dose response curve.

Assay [3] relates to PBMCs. Briefly: Cell mitosis assay in PBMCs. To be noted: Homo sapiens, PBMC, 5 μg/mL. As for the experimental part: Peripheral blood mononucleocytes (PBMCs) from healthy subjects are separated from whole blood (Quintiles, London, UK) using a density gradient (Histopaque®-1077, Sigma-Aldrich, Poole, UK). The PBMCs (3 million cells per sample) are subsequently treated with 2% PHA (phytohaemagglutinin, Sigma-Aldrich, Poole, UK) for 48 hr, followed by a 20 hr exposure to varying concentrations of test compounds. At 2 hr before collection, PBMCs are treated with demecolcine (0.1 μg/mL; Invitrogen, Paisley, UK) to arrest cells in metaphase. To observe mitotic cells, PBMCs are permeabilised and fixed by adding Intraprep (50 μL; Beckman Coulter, France), and stained with anti-phospho-histone 3 (0.26 ng/L; #9701; Cell Signalling, Danvers, Mass.) and propidium iodide (1 mg/mL; Sigma-Aldrich, Poole, UK) as previously described (Muehlbauer P. A. and Schuler M. J., Mutation Research, 2003, 537:117-130). Fluorescence is observed using an ATTUNE flow cytometer (Invitrogen, Paisley, UK), gating for lymphocytes.

Setting [4] is: read-out: IC50 Values for Inhibition of Cytokine Release PBMCs IFNγ.
Setting [5] is: read-out: IC50 Values for Inhibition of Cytokine Release PBMCs IL-2.

Take `COCCOCCOCCOc1cc(Nc2nccc(Oc3ccc(NC(=O)Nc4cc(C(C)(C)C)cc(NS(=O)(=O)C(F)(F)F)c4OC)c4ccccc34)n2)cc(OC)c1` [Example 71, N-(5-(tert-Butyl)-2-methoxy-3-(3-(4-((2-((3-methoxy-5-(2-(2-(2-methoxyethoxy)ethoxy)-ethoxy)phenyl)amino)pyrimidin-4-yl)oxy)naphthalen-1-yl)ureido)phenyl)-1,1,1-trifluoro-methanesulfonamide]: the IC50 came out at 114 nM with PBMCs [1] and 1150 nM with HT29 cells.

On to `COCCOCCOCCOc1cc(Nc2nccc(Oc3ccc(NC(=O)Nc4cc(C(C)(C)C)cc(NS(=O)(=O)N(C)C)c4OC)c4ccccc34)n2)cc(OC)c1` [Example 74, N-(5-(tert-Butyl)-2-methoxy-3-(3-(4-((2-((3-methoxy-5-(2-(2-(2-methoxyethoxy)ethoxy)-ethoxy)phenyl)amino)pyrimidin-4-yl)oxy)naphthalen-1-yl)ureido)phenyl)dimethylamino-sulfonamide], for which the IC50 in the assay on PBMCs [1] was found to be 6.6 nM; with HT29 cells, 11.7 nM.

`COCCOCCOCCOc1cc(Nc2nccc(Oc3ccc(NC(=O)Nc4cc(C(C)(C)C)cc(NS(=O)(=O)N5CCCCC5)c4OC)c4ccccc34)n2)cc(OC)c1` [Example 73, N-(5-(tert-Butyl)-2-methoxy-3-(3-(4-((2-((3-methoxy-5-(2-(2-(2-methoxyethoxy)ethoxy)-ethoxy)phenyl)amino)pyrimidin-4-yl)oxy)naphthalen-1-yl)ureido)phenyl)piperidine-1-sulfonamide]: the IC50 is 19 nM in the assay on PBMCs [1] and 31.6 nM in the assay with HT29 cells.

As to `COCCOCCOCCOc1cc(Nc2nccc(Oc3ccc(NC(=O)Nc4cc(C(C)(C)C)cc(-c5cnn[nH]5)c4OC)c4ccccc34)n2)cc(OC)c1` [Example 70, 1-(5-(tert-Butyl)-2-methoxy-3-(1H-1,2,3-triazol-5-yl)phenyl)-3-(4-((2-((3-methoxy-5-(2-(2-(2-methoxyethoxy)ethoxy)ethoxy)phenyl)amino)pyrimidin-4-yl)oxy)naphthalen-1-yl)urea], the values for the IC50 in the assay on PBMCs [1], in the assay with PBMCs [2] (setting [4]) and in the assay on HT29 cells were 4.9 nM, 7.4 nM and 4.1 nM, respectively.

In the case of `COCCOCCOCCOc1cc(Nc2nccc(Oc3ccc(NC(=O)Nc4cc(C(C)(C)C)cc(NS(C)(=O)=O)c4-c4ccccc4)c4ccccc34)n2)cc(OC)c1` [83(a), N-(4-(tert-butyl)-6-(3-(4-((2-((3-methoxy-5-(2-(2-(2-methoxyethoxy)ethoxy)ethoxy)phenyl)-amino)pyrimidin-4-yl)oxy)naphthalen-1-yl)ureido)-[1,1′-biphenyl]-2-yl)methane-sulfonamide], the IC50 amounted to 39 nM in the assay on PBMCs [1] and 62.5 nM in the assay with HT29 cells.

As to `COCCOCCOCCOc1cc(Nc2nccc(Oc3ccc(NC(=O)Nc4cc(C(C)(C)C)cc(NS(=O)(=O)C5CCCCC5)c4OC)c4ccccc34)n2)cc(OC)c1` [Example 72, N-(5-(tert-Butyl)-2-methoxy-3-(3-(4-((2-((3-methoxy-5-(2-(2-(2-methoxyethoxy)ethoxy)-ethoxy)phenyl)amino)pyrimidin-4-yl)oxy)naphthalen-1-yl)ureido)phenyl)cyclohexane-sulfonamide], the IC50 with PBMCs [1] turned out to be 11.8 nM; in the assay on HT29 cells it was 19.2 nM.

For `COc1cc(Nc2cc(Oc3ccc(NC(=O)Nc4cc(C(C)(C)C)cc(NS(C)(=O)=O)c4OC)c4ccccc34)ccn2)cc(C(=O)NCCN2CCS(=O)(=O)CC2)c1` [85(k), 3-[[4-[[4-[[5-tert-Butyl-3-(methanesulfonamido)-2-methoxyphenyl]-carbamoylamino]-1-naphthyl]oxy]-2-pyridyl]amino]-N-[2-(1,1-dioxo-1,4-thiazinan-4-yl)ethyl]-5-methoxybenzamide], the IC50 with PBMCs [1] was 1.7 nM; in the assay with PBMCs [2] (setting [4]), 9.3 nM; in the assay with PBMCs [2] (setting [5]) it was 57.1 nM. Besides, the inhibition at 5 µg/mL in the assay on PBMCs [3] came out at 41%.

Regarding `C#Cc1cc(Nc2nccc(Oc3ccc(NC(=O)Nc4cc(C(C)(C)C)cc(NS(C)(=O)=O)c4OC)c4ccccc34)n2)cc(C(=O)NCCN2CCOCC2)c1` [Example 1, 3-((4-((4-(3-(5-(tert-Butyl)-2-methoxy-3-(methylsulfonamido)phenyl)ureido)naphthalen-1-yl)oxy)pyrimidin-2-yl)amino)-5-ethynyl-N-(2-morpholinoethyl)benzamide], the values for the IC50 with PBMCs [1], in the assay on PBMCs [2] (setting [4]) and in the assay on PBMCs [2] (setting [5]) were 1.4 nM, 10.4 nM and 112 nM, respectively. Testing at 5 µg/mL in the assay with PBMCs [3] gave an inhibition of 22.1%.

As for `COc1cc(Nc2cc(Oc3ccc(NC(=O)Nc4cc(C(C)(C)C)cc(NS(C)(=O)=O)c4OC)c4ccccc34)ccn2)cc(C(=O)NCC(=O)N2CCOCC2)c1` [85(a), 3-[[4-[[4-[[5-tert-Butyl-3-(methanesulfonamido)-2-methoxyphenyl]-carbamoylamino]-1-naphthyl]oxy]-2-pyridyl]amino]-5-methoxy-N-(2-morpholino-2-oxo-ethyl)benzamide], the IC50 came out at 0.8 nM in the assay with PBMCs [1], 11.8 nM in the assay on PBMCs [2] (setting [4]) and 53.8 nM in the assay on PBMCs [2] (setting [5]). The compound also returned an inhibition at 5 µg/mL with PBMCs [3] of 46.3%.

`C#Cc1cc(Nc2nccc(Oc3ccc(NC(=O)Nc4cc(F)cc(N5CCOCC5)c4)c4ccccc34)n2)cc(C(=O)NCCN2CCOCC2)c1` [Example 2, 3-Ethynyl-5-((4-((4-(3-(3-fluoro-5-morpholinophenyl)ureido)naphthalen-1-yl)oxy)-pyrimidin-2-yl)amino)-N-(2-morpholinoethyl)benzamide]: the values for the IC50 in the assay on PBMCs [1] and in the assay with PBMCs [2] (setting [4]) were 142 nM and 35.7 nM, respectively. Moreover, in the assay on PBMCs [3], the inhibition at 5 µg/mL was 4%.

Turning to `C#Cc1cc(Nc2cc(Oc3ccc(NC(=O)Nc4cc(C(C)(C)C)cc(NS(C)(=O)=O)c4OC)c4ccccc34)ccn2)cc(C(=O)N[C@@H](C)COCCOCCOC)c1` [Example 67, (S)-3-((4-((4-(3-(5-(tert-Butyl)-2-methoxy-3-(methylsulfonamido)phenyl)ureido)-naphthalen-1-yl)oxy)pyridin-2-yl)amino)-5-ethynyl-N-(1-(2-(2-methoxyethoxy)ethoxy)-propan-2-yl)benzamide], the IC50 in the assay on PBMCs [1] is 2.7 nM; in the assay on PBMCs [2] (setting [4]) it was 39.5 nM; in the assay on PBMCs [2] (setting [5]), 200 nM. In addition, the inhibition at 5 µg/mL in the assay on PBMCs [3] was found to be 35.6%.

In the case of `C#Cc1cc(Nc2cc(Oc3ccc(NC(=O)Nc4cc(C(C)(C)C)cc(NS(C)(=O)=O)c4OC)c4ccccc34)ccn2)cc(C(=O)NCCOCCOCCOC)c1` [Example 54, 3-((4-((4-(3-(5-(tert-Butyl)-2-methoxy-3-(methylsulfonamido)phenyl)ureido)naphthalen-1-yl)oxy)pyridin-2-yl)amino)-5-ethynyl-N-(2-(2-(2-methoxyethoxy)ethoxy)ethyl)benzamide], the results for the half-maximal inhibitory concentration (IC50) in the assay with PBMCs [1], with PBMCs [2] (setting [4]) and in the assay with PBMCs [2] (setting [5]) were 1.6 nM, 33.3 nM and 354 nM, respectively. This compound displayed an inhibition at 5 µg/mL in the assay with PBMCs [3] of 37.8%.

As for `COCCOCCOCCOc1cc(Nc2nccc(Oc3ccc(NC(=O)Nc4cc(C(C)(C)C)cc(C(N)=O)c4OC)c4ccccc34)n2)cc(OC)c1` [Example 20, 5-(tert-Butyl)-2-methoxy-3-(3-(4-((2-((3-methoxy-5-(2-(2-(2-methoxyethoxy)ethoxy)-ethoxy)phenyl)amino)pyrimidin-4-yl)oxy)naphthalen-1-yl)ureido)benzamide], the IC50 in the assay on PBMCs [1] is 1.1 nM; with PBMCs [2] (setting [4]) it was 9 nM; in the assay on PBMCs [2] (setting [5]) it was 84.3 nM. The compound also showed an inhibition at 5 µg/mL with PBMCs [3] of 44.3%.

Take `COc1cc(Nc2nccc(Oc3ccc(NC(=O)Nc4cc(C(C)(C)C)cc(NS(C)(=O)=O)c4OC)c4ccccc34)n2)cc(C(=O)NCCN2CCOCC2)c1` [Example 6, 3-((4-((4-(3-(5-(tert-Butyl)-2-methoxy-3-(methylsulfonamido)phenyl)ureido)naphthalen-1-yl)oxy)pyrimidin-2-yl)amino)-5-methoxy-N-(2-morpholinoethyl)benzamide]: the IC50 with PBMCs [1] was 0.8 nM; in the assay on PBMCs [2] (setting [4]), 9.3 nM; with PBMCs [2] (setting [5]) it was 89.9 nM. For the same compound, the inhibition at 5 µg/mL in the assay on PBMCs [3] was determined as 41.7%.

In the case of `COCCOCCOCCOc1cc(Nc2nccc(Oc3ccc(NC(=O)Nc4cc(N5CCOCC5)ccc4OC)c4ccccc34)n2)cc(OC)c1` [Example 12, 1-(4-((2-((3-Methoxy-5-(2-(2-(2-methoxyethoxy)ethoxy)ethoxy)phenyl)amino)-pyrimidin-4-yl)oxy)naphthalen-1-yl)-3-(2-methoxy-5-morpholinophenyl)urea], the IC50 in the assay with PBMCs [1] stood at 107 nM; in the assay with HT29 cells it was 1320 nM.
